Test results: US20250345446A1 (Draupnir Bio ApS, priority 2022, published 2025)

Each compound was assayed against T1, soluble ectodomain of sortilin-6his (Homo sapiens, UniProt Q99523, V650M) (assay: MST binding to soluble ectodomain of sortilin-6his). Conditions: Table 4; small molecule bifunctional compounds; MST; read-out: KD score, binding to sortilin (Kd).
T1 construct: the soluble ectodomain of sortilin-6his is measured by microscale thermophoresis (MST)
Procedure: At this point the plate was sealed with adhesive strip and placed on an Eppendorf thermomixer to shake at 600 rpm for 3 min before spinning on a Fisherbrand plate-spinner for 15 seconds and further incubation 1 hrs at 19° C. MST was measured on a Monolith NT. Automated (Nanotemper) in standard-treated capillaries at 5% LED-power and high MST-power. Dose-response was extracted from the raw thermographs at 20 sec hot-time and the dissociation constant was estimated by sigmoidal curve fitting in MO. Affinity analysis program (Nanotemper). All experiments were run in duplicates.

T1 sequence (Q99523 with tags, fused parts or gaps V650M): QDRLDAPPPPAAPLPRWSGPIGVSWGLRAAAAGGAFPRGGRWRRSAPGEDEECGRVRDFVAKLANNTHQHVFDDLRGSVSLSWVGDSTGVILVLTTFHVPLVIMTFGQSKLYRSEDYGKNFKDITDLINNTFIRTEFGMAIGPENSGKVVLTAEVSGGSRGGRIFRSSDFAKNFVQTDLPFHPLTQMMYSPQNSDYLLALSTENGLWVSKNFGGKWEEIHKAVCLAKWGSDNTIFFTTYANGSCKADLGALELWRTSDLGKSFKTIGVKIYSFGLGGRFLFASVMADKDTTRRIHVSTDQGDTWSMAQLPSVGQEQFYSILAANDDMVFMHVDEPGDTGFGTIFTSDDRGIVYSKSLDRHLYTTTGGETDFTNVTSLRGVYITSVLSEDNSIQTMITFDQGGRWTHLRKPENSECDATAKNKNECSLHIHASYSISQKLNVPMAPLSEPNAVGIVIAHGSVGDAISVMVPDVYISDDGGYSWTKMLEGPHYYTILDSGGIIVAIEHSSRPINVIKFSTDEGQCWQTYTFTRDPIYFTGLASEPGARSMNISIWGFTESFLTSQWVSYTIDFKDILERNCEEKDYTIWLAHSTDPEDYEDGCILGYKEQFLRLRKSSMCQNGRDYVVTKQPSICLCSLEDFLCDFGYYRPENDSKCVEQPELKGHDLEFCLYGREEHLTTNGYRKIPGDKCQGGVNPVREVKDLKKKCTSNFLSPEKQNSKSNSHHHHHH

Compound	Kd [nM]
CC(C)(C)CC[C@H](NC(=O)c1ccc(Oc2cccc(C(=O)NCCOCCOCCNc3ccc([N+](=O)[O-])cc3[N+](=O)[O-])c2)nc1)C(=O)O [BF001, (2S)-2-[[6-[3-[2-[2-[2-(2,4-dinitroanilino)ethoxy]ethoxy]ethylcarbamoyl]phenoxy]pyridine-3-carbonyl]amino]-5,5-dimethyl-hexanoic acid]	1 to 10
CC(C)(C)CC[C@H](NC(=O)c1ccc(Oc2cccc(C(=O)NCCOCCOCCOCCNc3ccc([N+](=O)[O-])cc3[N+](=O)[O-])c2)nc1)C(=O)O [BF002, (2S)-2-[[6-[3-[2-[2-[2-[2-(2,4-dinitroanilino)ethoxy]ethoxy]ethoxy]ethyl-carbamoyl]phenoxy]pyridine-3-carbonyl]amino]-5,5-dimethyl-hexanoic acid]	1 to 10
CC(C)(C)CC[C@H](NC(=O)c1ccc(Oc2cccc(C(=O)NCCOCCOCCOCCOCCNc3ccc([N+](=O)[O-])cc3[N+](=O)[O-])c2)nc1)C(=O)O [BF003, (2S)-2-[[6-[3-[2-[2-[2-[2-[2-(2,4-dinitroanilino)ethoxy]ethoxy]ethoxy]ethoxy]ethylcarbamoyl]phenoxy]pyridine-3-carbonyl]amino]-5,5-dimethyl-hexanoic acid]	1 to 10
CC(C)(C)CC[C@H](NC(=O)c1ccc(Oc2cccc(OCCOCCOCCOCCNc3ccc([N+](=O)[O-])cc3[N+](=O)[O-])c2)nc1)C(=O)O [BF007, (2S)-2-[[6-[3-[2-[2-[2-[2-(2,4-dinitroanilino)ethoxy]ethoxy]ethoxy]ethoxy]phenoxy]pyridine-3-carbonyl]amino]-5,5-dimethyl-hexanoic acid]	1 to 10
CC(C)(C)CC[C@H](NC(=O)c1ccc(Oc2cccc3c(C(=O)NCCCNC(=O)CCOCCOCCNc4ccc([N+](=O)[O-])cc4[N+](=O)[O-])cccc23)nc1)C(=O)O [BF009]	1 to 10
CC(C)(C)CC[C@H](NC(=O)c1ccc(Oc2cccc(OCCOCCOCCOCCOCCOCCOCCOCCNc3ccc([N+](=O)[O-])cc3[N+](=O)[O-])c2)nc1)C(=O)O [BF012, (2S)-2-[[6-[3-[2-[2-[2-[2-[2-[2-[2-[2-(2,4-dinitroanilino)ethoxy]ethoxy]ethoxy]ethoxy]ethoxy]ethoxy]ethoxy]ethoxy]phenoxy]pyridine-3-carbonyl]amino]-5,5-dimethyl-hexanoic acid]	1 to 10
C[C@@H]1CN(c2ncc(-c3ccc4c(n3)N(Cc3cccnc3C#N)C(C)(C)C4=O)cn2)CCN1C(=O)COCCOCCOCCOCCNC(=O)c1cccc(Oc2ccc(C(=O)N[C@@H](CCC(C)(C)C)C(=O)O)cn2)c1 [BF031, (2S)-2-[[6-[3-[2-[2-[2-[2-[2-[(2R)-4-[5-[1-[(2-cyano-3-pyridyl)methyl]-2,2-dimethyl-3-oxo-pyrrolo[2,3-b]pyridin-6-yl]pyrimidin-2-yl]-2-methyl-piperazin-1-yl]-2-oxo-ethoxy]ethoxy]ethoxy]ethoxy]ethylcarbamoyl]phenoxy]pyridine-3-carbonyl]amino]-5,5-dimethyl-hexanoic acid]	10 to 250
C[C@@H]1CN(c2ncc(-c3ccc4c(n3)N(Cc3cccnc3C#N)C(C)(C)C4=O)cn2)CCN1C(=O)COCCCCCCCCNc1cccc(Oc2ccc(C(=O)N[C@@H](CCC(C)(C)C)C(=O)O)cn2)c1 [BF038]	> 250
CC(C)(C)CC[C@H](NC(=O)c1ccc(Oc2cccc(C(=O)NCCOCCOCCOCCOCCOCCOCc3ccc(-c4cccc5ccncc45)c(OCCc4ccc(-c5cccc6ccncc56)cc4)c3)c2)nc1)C(=O)O [BF044, (2S)-2-[[6-[3-[2-[2-[2-[2-[2-[2-[[4-(8-isoquinolyl)-3-[2-[4-(8-isoquinolyl)phenyl]ethoxy]phenyl]methoxy]ethoxy]ethoxy]ethoxy]ethoxy]ethoxy]ethylcarbamoyl]phenoxy]pyridine-3-carbonyl]amino]-5,5-dimethyl-hexanoic acid]	10 to 250
C[C@@H]1CN(c2ncc(-c3ccc4c(n3)N(Cc3cccnc3C#N)C(C)(C)C4=O)cn2)CCN1C(=O)COCCNc1cccc(Oc2ccc(C(=O)N[C@@H](CCC(C)(C)C)C(=O)O)cn2)c1 [BF047, (S)-2-(6-(3-((2-(2-((R)-4-(5-(1-((2-cyanopyridin-3-yl)methyl)-2,2-dimethyl-3-oxo-2,3-dihydro-1H-pyrrolo[2,3-b]pyridin-6-yl)pyrimidin-2-yl)-2-methylpiperazin-1-yl)-2-oxoethoxy)ethyl)amino)phenoxy)nicotinamido)-5,5-dimethylhexanoic acid]	1 to 10
C[C@@H]1CN(c2ncc(-c3ccc4c(n3)N(Cc3cccnc3C#N)C(C)(C)C4=O)cn2)CCN1C(=O)COCCCCNC(=O)COc1cccc(Oc2ccc(C(=O)N[C@@H](CCC(C)(C)C)C(=O)O)cn2)c1 [BF048]	1 to 10
CC(C)(C)CC[C@H](NC(=O)c1ccc(Oc2cccc(C(=O)NCCOCCOCCNc3ncc(-c4ccc5c(n4)N(Cc4cccnc4C#N)C(C)(C)C5=O)cn3)c2)nc1)C(=O)O [BF049, (2S)-2-[[6-[3-[2-[2-[2-[[5-[1-[(2-cyano-3-pyridyl)methyl]-2,2-dimethyl-3-oxo-pyrrolo[2,3-b]pyridin-6-yl]pyrimidin-2-yl]amino]ethoxy]ethoxy]ethylcarbamoyl]phenoxy]pyridine-3-carbonyl]amino]-5,5-dimethyl-hexanoic acid]	1 to 10
C[C@@H]1CN(c2ncc(-c3ccc4c(n3)N(Cc3cccnc3C#N)C(C)(C)C4=O)cn2)CCN1C(=O)COCCOCCNC(=O)c1cccc(Oc2ccc(C(=O)N[C@@H](CCC(C)(C)C)C(=O)O)cn2)c1 [BF051, (2S)-2-[[6-[3-[2-[2-[2-[(2R)-4-[5-[1-[(2-cyano-3-pyridyl)methyl]-2,2-dimethyl-3-oxo-pyrrolo[2,3-b]pyridin-6-yl]pyrimidin-2-yl]-2-methyl-piperazin-1-yl]-2-oxo-ethoxy]ethoxy]ethylcarbamoyl]phenoxy]pyridine-3-carbonyl]amino]-5,5-dimethyl-hexanoic acid]	1 to 10
CC(C)(C)CC[C@H](NC(=O)c1ccc(Oc2cccc(C(=O)NCCOCCOCCOCCOCCOc3ncc(-c4ccc5c(n4)N(Cc4cccnc4C#N)C(C)(C)C5=O)cn3)c2)nc1)C(=O)O [BF052]	1 to 10
CC(C)(C)CC[C@H](NC(=O)c1ccc(Oc2cccc(C(=O)NCCOCCOc3ncc(-c4ccc5c(n4)N(Cc4cccnc4C#N)C(C)(C)C5=O)cn3)c2)nc1)C(=O)O [BF053]	1 to 10
CC(C)(C)CC[C@H](NC(=O)c1ccc(Oc2cccc(C(=O)NCCOCCOCCOCCOc3ncc(-c4ccc5c(n4)N(Cc4cccnc4C#N)C(C)(C)C5=O)cn3)c2)nc1)C(=O)O [BF054]	1 to 10

More lines, now with the values ahead:

Kd [nM]	Compound
1 to 10	C[C@@H]1CN(c2ncc(-c3ccc4c(n3)N(Cc3cccnc3C#N)C(C)(C)C4=O)cn2)CCN1C(=O)CNC(=O)COCCOCCCCCCNC(=O)c1cccc(Oc2ccc(C(=O)N[C@@H](CCC(C)(C)C)C(=O)O)cn2)c1
< 1	CC(C)(C)CC[C@H](NC(=O)c1ccc(Oc2cccc(C(=O)NCCOCCOCCOCCNc3ncc(-c4ccc5c(n4)N(Cc4cccnc4C#N)C(C)(C)C5=O)cn3)c2)nc1)C(=O)O [BF030, (2S)-2-[[6-[3-[2-[2-[2-[2-[[5-[1-[(2-cyano-3-pyridyl)methyl]-2,2-dimethyl-3-oxo-pyrrolo[2,3-b]pyridin-6-yl]pyrimidin-2-yl]amino]ethoxy]ethoxy]ethoxy]ethylcarbamoyl]phenoxy]pyridine-3-carbonyl]amino]-5,5-dimethyl-hexanoic acid]
< 1	CC(C)(C)CC[C@H](NC(=O)c1ccc(Oc2cccc(C(=O)NCCOCCOCCOCc3ccc(-c4cccc5ccncc45)c(OCCc4ccc(-c5cccc6ccncc56)cc4)c3)c2)nc1)C(=O)O [BF033, (2S)-2-[[6-[3-[2-[2-[2-[[4-(8-isoquinolyl)-3-[2-[4-(8-isoquinolyl)phenyl]ethoxy]phenyl]methoxy]ethoxy]ethoxy]ethylcarbamoyl]phenoxy]pyridine-3-carbonyl]amino]-5,5-dimethyl-hexanoic acid]
1 to 10	CC(C)(C)CC[C@H](NC(=O)c1ccc(Oc2cccc(C(=O)NCCOCCOCCOCCOCc3ccc(-c4cccc5ccncc45)c(OCCc4ccc(-c5cccc6ccncc56)cc4)c3)c2)nc1)C(=O)O [BF035, (2S)-2-[[6-[3-[2-[2-[2-[2-[[4-(8-isoquinolyl)-3-[2-[4-(8-isoquinolyl)phenyl]ethoxy]phenyl]methoxy]ethoxy]ethoxy]ethoxy]ethylcarbamoyl]phenoxy]pyridine-3-carbonyl]amino]-5,5-dimethyl-hexanoic acid]
1 to 10	C[C@@H]1CN(c2ncc(-c3ccc4c(n3)N(Cc3cccnc3C#N)C(C)(C)C4=O)cn2)CCN1C(=O)COCCCCCCNC(=O)COc1cccc(Oc2ccc(C(=O)N[C@@H](CCC(C)(C)C)C(=O)O)cn2)c1 [BF036]
< 1	CC(C)(C)CC[C@H](NC(=O)c1ccc(Oc2cccc(C(=O)NCCOCCOCCOCCOCCOCc3ccc(-c4cccc5ccncc45)c(OCCc4ccc(-c5cccc6ccncc56)cc4)c3)c2)nc1)C(=O)O [BF037, (2S)-2-[[6-[3-[2-[2-[2-[2-[2-[[4-(8-isoquinolyl)-3-[2-[4-(8-isoquinolyl)phenyl]ethoxy]phenyl]methoxy]ethoxy]ethoxy]ethoxy]ethoxy]ethylcarbamoyl]phenoxy]pyridine-3-carbonyl]amino]-5,5-dimethyl-hexanoic acid]
1 to 10	C[C@@H]1CN(c2ncc(-c3ccc4c(n3)N(Cc3cccnc3C#N)C(C)(C)C4=O)cn2)CCN1C(=O)COCCCCCCNc1cccc(Oc2ccc(C(=O)N[C@@H](CCC(C)(C)C)C(=O)O)cn2)c1 [BF039]
< 1	C[C@@H]1CN(c2ncc(-c3ccc4c(n3)N(Cc3cccnc3C#N)C(C)(C)C4=O)cn2)CCN1C(=O)COCCCCCCCCNC(=O)c1cccc(Oc2ccc(C(=O)N[C@@H](CCC(C)(C)C)C(=O)O)cn2)c1 [BF041]
1 to 10	C[C@@H]1CN(c2ncc(-c3ccc4c(n3)N(Cc3cccnc3C#N)C(C)(C)C4=O)cn2)CCN1C(=O)COCCCCNC(=O)c1cccc(Oc2ccc(C(=O)N[C@@H](CCC(C)(C)C)C(=O)O)cn2)c1 [BF045]
< 1	C[C@@H]1CN(c2ncc(-c3ccc4c(n3)N(Cc3cccnc3C#N)C(C)(C)C4=O)cn2)CCN1C(=O)COCCCCNc1cccc(Oc2ccc(C(=O)N[C@@H](CCC(C)(C)C)C(=O)O)cn2)c1 [BF046]
